Results reported in US4223137A, “Carbostyril derivatives and process for preparing the same” (Otsuka Pharmaceutical Co., Ltd., priority 1976, dated 1980).
Where “and” joins values, the source holds several entries; their conditions need not be identical. Equal values may be shown once. Where a name gives a salt, the structure may show the parent alone. Read-outs that look alike come from different tables or passages of the source.

What was measured:
β2-receptor = assay: Separation of bronchial resistance effect from heart rate effect (β2 selectivity), anesthetized dogs; type: in vivo, dog (male hybrid adult dogs); settings: i.v.
Protocol: (§1) The stimulating activity of the compounds of this invention on β-adrenoreceptor was determined as follows: Male hydrid adult dogs, weighing 10 to 15 kg, were anesthesized with sodium pentobartital administered intravenously at a level of 30 mg/kg of body weight. Each of the anesthesized dogs was secured on its back and a cannula was inserted into the trachea. Artificial respiration was conducted using a device according to the Konzett-Rossler method (Konzett H. & Rossler R., "Versuchsanordnug zu Untersuchungen an der Bronchial Moskolatur", Arch. Exp. Path., Pharmack, 195, 71-74, 27-40 (1940). The volume of the air which overflowed at the time of inhalation was measured through a pneumotachometer to determine the bronchial resistance and the values obtained were recorded on a polygraph.
(§2) In the above procedure, histamine was employed as a bronchoconstrictor at a dosage level of 10 μg/kg of body weight, and an aqueous solution containing each of the test compounds and controls shown in Table 1 below was then administered to each of the anesthesized dogs through the femoral vein at the various dosage levels as shown in Table 1 below 1 minute before the administration of the histamine. Sodium pentobartital was infused during the procedure at a dosage level of 4 mg/kg of body weight/hr using an automatic injector in order to inhibit spontaneous respiration and to maintain the anesthetic condition constant over the test period.
(§3) ED50 values were calculated using a Dose Response curve. At the same time the pulse was measured through a transducer and the value was recorded on a polygraph.

β-adrenoreceptor [1] = assay: Persistence (duration) of inhibition of histamine-induced bronchospasm, anesthetized dogs; type: in vivo, dog; settings: FIGURE, i.v. 1 μg/kg, versus Compound (2)
Protocol: as §1, with “[…],” for “Pharmack,”, “polygraph. […] Sodium pentobartital was infused during the procedure at a dosage level of 4 mg/kg of body weight/hr using an automatic injector in order to inhibit spontaneous respiration and to maintain the anesthetic condition constant over the test period. The persistance time was determined by administering to a subject a test compound in such a dose that a histamine-induced bronchospasm is inhibited completely (100%), in the same manner as described above and observing the persistance of the activity of the test compound with the lapse of time.” for “polygraph.”

β-adrenoreceptor [2] = assay: Heart rate (pulse) increase, i.v., anesthetized dogs; type: in vivo, dog (male hybrid adult dogs); settings: for Heart Rate (HR) ED25 beats/min, Compound: pulse increase; for Heart Rate (HR) Relative Potency: ED25 compared to isoproterenol as standard compound
Protocol: (§4) The stimulating activity of the compounds of this invention on β-adrenoreceptor was determined as follows: Male hydrid adult dogs, weighing 10 to 15 kg, were anesthesized with sodium pentobartital administered intravenously at a level of 30 mg/kg of body weight. Each of the anesthesized dogs was secured on its back and a cannula was inserted into the trachea.
as §2, §3

β-adrenoreceptor [3] = biological target: T1, β-adrenoreceptor (Canis lupus familiaris, UniProt P54833); assay: Inhibition of histamine-induced bronchial resistance increase (bronchospasm), i.v., Konzett-Rossler method, anesthetized dogs; type: in vivo, dog (male hybrid adult dogs); settings: for Bronchial Resistance (BR) Relative Potency: ED50 compared to isoproterenol as standard compound; for ED50: dog, iv
T1 construct: from tissue; host or cells: airways of anesthetized dogs, in vivo
T1 sequence (P54833 whole entry): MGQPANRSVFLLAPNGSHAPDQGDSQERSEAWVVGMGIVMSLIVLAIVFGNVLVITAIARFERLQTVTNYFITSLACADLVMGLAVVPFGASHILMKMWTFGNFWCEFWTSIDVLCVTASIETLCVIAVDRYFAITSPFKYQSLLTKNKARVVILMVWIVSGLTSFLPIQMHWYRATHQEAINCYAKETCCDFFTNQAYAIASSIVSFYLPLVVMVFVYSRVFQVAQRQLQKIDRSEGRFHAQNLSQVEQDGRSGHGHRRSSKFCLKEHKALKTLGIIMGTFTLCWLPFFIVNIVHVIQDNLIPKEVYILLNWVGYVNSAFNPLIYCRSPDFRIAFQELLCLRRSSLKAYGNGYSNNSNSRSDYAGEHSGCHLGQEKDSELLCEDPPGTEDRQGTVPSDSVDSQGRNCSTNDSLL
Protocol: as §4, §2, §3

[4] = Acute toxicity by intravenous administration; settings: rat, in vivo, i.v., male rats (dd strain, 18 to 22 g), fasted 12 hours, read-out: LD50 (50% lethal dose)
Protocol: Further, the acute toxicity by intravenous administration was determined with respect to the test compounds shown in Table 2 below using 5 to 6 groups each containing 10 male rats (dd strain; body weight: 18 to 22 g) which had been fasted for 12 hours prior to the test. The LD50 (50% lethal dose) results are as follows.

[5] = read-out: Bronchial Resistance (BR) ED50, Compound
[6] = i.v. 1 minute before histamine 10 μg/kg, anesthetized dogs, read-out: Bronchial Resistance (BR) ED50, Compound

SMILES	Separation Ratio HR(Relative Potency)/BR(Relative Potency) (β2-receptor)	duration of β-stimulation activity on histamine-induced bronchospasm (β-adrenoreceptor [1])	Heart Rate (HR) ED25 beats/min, Compound (β-adrenoreceptor [2]; i.v., anesthetized dogs)	Heart Rate (HR) Relative Potency (β-adrenoreceptor [2])	Bronchial Resistance (BR) Relative Potency (β-adrenoreceptor [3])	ED50 (β-adrenoreceptor [3]; [5])	LD50 [4]	ED50 (β-adrenoreceptor [3]; [6])	Heart Rate (HR) ED25 beats/min, Isoproterenol (β-adrenoreceptor [2]; isoproterenol as standard compound for the compound of the same line, i.v., anesthetized dogs)	ED50 (β-adrenoreceptor [3]; read-out: Bronchial Resistance (BR) ED50, Isoproterenol, isoproterenol as standard compound for the compound of the same line, i.v., anesthetized dogs)	Bronchial Resistance (BR) ED50, Compound (β-adrenoreceptor [3]; i.v. 1 minute before histamine 10 μg/kg, anesthetized dogs)
CCC(NC(C)C)C(OC(C)=O)c1ccc(OC(C)=O)c2[nH]c(=O)ccc12.Cl (stereo not shown) [(3), 8-acetoxy-5-(1-acetoxy-2-isopropylaminobutyl)carbostyril hydrochloride]	11.0	exhibit a long-lasting β-stimulation activity on histamine-induced bronchospasm as compared with that of the comparative compound	4.5 µg/kg	64.4	5.85	0.82 µg/kg	112000 µg/kg	–	–	–	–
CCNC(CC)C(O)c1ccc(OC(C)=O)c2[nH]c(=O)ccc12.Cl (stereo not shown) [(4), 8-acetoxy-5-(1-hydroxy-2-ethylaminobutyl)carbostyril hydrochloride]	11.8	exhibit a long-lasting β-stimulation activity on histamine-induced bronchospasm as compared with that of the comparative compound	3.6 µg/kg	45.0	3.81	0.61 µg/kg	105000 µg/kg	–	–	–	–
CCNC(CC)C(O)c1ccc(OC(=O)CC(C)C2CCCCC2)c2[nH]c(=O)ccc12.Cl (stereo not shown) [(5), 8-(3-cyclohexylbutyryloxy)-5-(1-hydroxy-2-ethylaminobutyl)carbostyril hydrochloride]	12.7	–	6.5 µg/kg	65.4	5.15	0.67 µg/kg	–	–	–	–	–
CCC(NC(C)C)C(O)c1ccc(OC(=O)CC(C)(C)C)c2[nH]c(=O)ccc12 (stereo not shown) [(6)]	13.1	–	3.2 µg/kg	46.1	3.52	–	107000 µg/kg	0.42 µg/kg	–	–	–
CCC(NC(C)C)C(O)c1ccc(OC(=O)Cc2ccccc2)c2[nH]c(=O)ccc12.Cl (stereo not shown) [(7), 8-phenylacetoxy-5-(1-hydroxy-2-isopropylaminobutyl)carbostyril hydrochloride]	–	–	1.39 µg/kg	–	–	0.17 µg/kg	–	–	–	–	–
COc1ccc(CCNCC(OC(=O)C2CC2)c2ccc(OC(=O)C3CC3)c3[nH]c(=O)ccc23)cc1OC (stereo not shown) [(8), 8-cyclopropylcarbonyloxy)-5-[1-cyclopropylcarbonyloxy-2-(3,4-dimethoxyphenethylamino)ethyl]carbostyril hydrochloride]	14.8	–	4.81 µg/kg	68.7	4.64	–	123000 µg/kg	0.51 µg/kg	–	–	–
CCNC(CC)C(O)c1ccc(OC(=O)c2ccc(C)cc2)c2[nH]c(=O)ccc12.Cl (stereo not shown) [(9), 8-(4-methylbenzoyloxy)-5-(1-hydroxy-2-ethylaminobutyl)carbostyril hydrochloride]	14.5	–	1.7 µg/kg	15.5	1.06	0.16 µg/kg	132000 µg/kg	–	–	–	–
CCC(NC(C)C)C(O)c1ccc(OC(=O)C(C)C)c2nc(OC(=O)C(C)C)ccc12.Cl (stereo not shown) [(10), 2,8-diisobutyryloxy-5-(1-hydroxy-2-isopropylaminobutyl)quinoline hydrochloride]	9.5	exhibit a long-lasting β-stimulation activity on histamine-induced bronchospasm as compared with that of the comparative compound	5.6 µg/kg	56.4	5.94	0.95 µg/kg	–	–	–	–	–
CCC(NCc1ccccc1)C(O)c1ccc(OC(=O)c2ccc(Cl)cc2)c2[nH]c(=O)ccc12.Cl (stereo not shown) [(11), 8-(4-chlorobenzoyloxy)-5-(1-hydroxy-2-benzylaminobutyl)carbostyril hydrochloride]	7.2	–	4.2 µg/kg	46.7	6.50	0.91 µg/kg	–	–	–	–	–
CCC(NC(C)C)C(OC(=O)c1ccc(C)cc1)c1ccc(OC(=O)c2ccc(C)cc2)c2c1CCC(=O)N2 (stereo not shown) [(12), 8-(4-methylbenzoyloxy)-5-[(1-(4-methylbenzoyloxy)-2-isopropylaminobutyl]-3,4-dihydrocarbostyril hydrochloride]	10.3	–	8.3 µg/kg	75.5	7.30	–	153000 µg/kg	0.73 µg/kg	–	–	–
CCC(NC(C)C)C(OC(=O)C1CCCCC1)c1ccc(OC(=O)c2ccc(C)cc2)c2[nH]c(=O)ccc12.Cl (stereo not shown) [(13), 8-(4-methylbenzoyloxy)-5-(1-cyclohexylcarbonyloxy-2-isopropylaminobutyl)carbostyril hydrochloride]	11.3	–	6.02 µg/kg	66.9	5.92	0.71 µg/kg	147000 µg/kg	–	–	–	–
CC(C)C(=O)Oc1ccc(C(O)C(C)NC(C)(C)C)c2ccc(=O)[nH]c12 (stereo not shown) [(14), 8-isobutyryloxy-5-(1-hydroxy-2-tert-butylaminopropyl)carbostyril]	12.3	–	3.86 µg/kg	48.3	3.92	–	–	0.47 µg/kg	–	–	–
CCNC(CC)C(O)c1ccc(O)c2[nH]c(=O)ccc12.Cl (stereo not shown) [Compound (2), 8-hydroxy-5-(1-hydroxy-2-ethylaminobutyl)carbostyril hydrochloride, reference compound]	11.5	–	3.6 µg/kg	40.0	3.47	0.66 µg/kg	–	–	–	–	–
CC(C)NCC(O)c1ccc(O)c(O)c1 (stereo not shown) [Isoproterenol, reference compound]	–	–	–	–	–	–	–	–	0.07 µg/kg and 0.10 µg/kg	0.19 µg/kg	–
CC(C)(C)NCC(O)c1ccc(O)c(CO)c1 (stereo not shown) [Salubutamol (1), Salbutamol, reference compound]	7.52	–	2.8 µg/kg	45.9	6.1	–	–	–	–	–	0.52 µg/kg
